Entries after “also recorded” stand apart in the source; their conditions may differ.
System: JeKo-1 MCL xenograft tumors
Experiment: JeKo-1 MCL cell line-derived xenograft mouse study
Assay type: in vivo, NOD.Scid mice
Conditions: for tumor volume: at day 17, on bortezomib (1 mg/kg i.p.) or ibrutinib (50 mg/kg p.o.), tumors refractory; for tumor size: day 16, treated by bortezomib (1 mg/kg, i.p.) or ibrutinib (50 mg/kg, p.o.); for tumor response to single-agent treatment: n=8/arm, low dose LP-284 (2 mg/kg i.v.), bortezomib 1 mg/kg i.p. or ibrutinib 50 mg/kg p.o.
Procedure: The JeKo-1 MCL cell line-derived xenograft mice (n=8/arm) were treated with vehicle, LP-284 (2 mg/kg or 4 mg/kg, i.v.), bortezomib (1 mg/kg, i.p.), or ibrutinib (50 mg/kg, p.o.) at days indicated by arrows in the graph. Tumor volumes were measured every 2 to 4 days after treatment initiation.
The two drugs were replaced with one cycle of 4 mg/kg LP-284 or the vehicle (saline).
Each treatment arm was then further split into two sub-arms (n=4/sub-arm), one of which was treated by vehicle whereas the other was treated by 4 mg/kg LP-284 (i.v.), as indicated by arrows in the graph.
Five-week old NOD.Scid mice were procured through Envigo (Item 17003F). Mice were fed Teklad irradiated (sterilized) mouse diet and bedded with Teklad irradiated (sterilized) corncob bedding from Envigo (Indianapolis, IN). Mice were housed in Optimice carousel sterile quarters with filtered air supply in disposable cages from Animal Care Systems, Inc. (Centennial, CO). A total of 1×10^7 cells JeKo-1 cells were injected subcutaneously into the right hind flank of each animal using a […] needle. Vehicle (saline), 4 mg/kg or 2 mg/kg LP-284 was administered as an intravenous injection on day 1, 3, 5, 7, 9, 17, 19, 21, 23, 25. 50 mg/kg ibrutinib was administered orally daily on day 1-16. 1 mg/kg bortezomib administered as an intraperitoneal injection on day 1, 4, 7, 10. The ibrutinib and bortezomib arms were further treated with vehicle or 4 mg/kg LP-284 intravenously on day 17, 19, 21, 23, 25. Tumors were measured in two dimensions using calipers, and volume was calculated using the formula:
TumorVolume (mm^3)=w2×l/2
where w=width and l=length, in mm, of the tumor. For this study the calipers were aligned to the tumor edges (the tumors were not squeezed with the caliper).

Compound	tumor volume	tumor size	tumor response to single-agent treatment	tumor response to single-agent treatment (listed as Ibrutinib)	tumor response to single-agent treatment (listed as Bortezomib)	survival versus vehicle (Kaplan-Meier) (bortezomib or ibrutinib pre-treated and refractory xenograft mice switched to 4 mg/kg LP-284 i.v., p<0.001)	tumor response after switching bortezomib- or ibrutinib-refractory mice to LP-284 (one cycle of 4 mg/kg LP-284 i.v. on day 17, 19, 21, 23, 25, tumors ~2000 mm3, n=4/sub-arm, 4 mg/kg)
C=CC(=O)N1CCC[C@@H](n2nc(-c3ccc(Oc4ccccc4)cc3)c3c(N)ncnc32)C1 [ibrutinib, (R)-1-(3-(4-amino-3-(4-phenoxyphenyl)-1H-pyrazolo[3,4-d]pyrimidin-1-yl)piperidin-1-yl) prop-2-en-1-one]	~2000 mm3	~2000 mm3	refractory	resulted in refractory cancer after initially controlling cell growth in tumors; also recorded: become refractory and relapse	–	–	–
CC(C)C[C@H](NC(=O)[C@H](Cc1ccccc1)NC(=O)c1cnccn1)B(O)O [bortezomib, [(1R)-3-methyl-1-({(2S)-3-phenyl-2-[(pyrazin-2-ylcarbonyl)amino]propanoyl}amino)butyl]boronic acid]	~2000 mm3	~2000 mm3	refractory	–	resulted in refractory cancer after initially controlling cell growth in tumors; also recorded: become refractory and relapse	–	–
CC1=C(CN(O)C(N)=O)C2=C(C)C3(CC3)[C@](C)(O)C(=O)C2=C1 [LP-284, (+)-hydroxyureamethyl acylfulvene]	–	–	resulted in refractory cancer after initially controlling cell growth in tumors	–	–	approximately two times longer; also recorded: prolonged survival	almost completely eliminating; also recorded: near complete tumor regression; also recorded: diminished rapidly
